Experimental data from patent US20240382481A1 (priority 2021, published 2024).

Molecular target: SRPK3/MSSK1/STK23 (Homo sapiens, UniProt Q9UPE1)
Experiment: biochemical

Sequence of SRPK3/MSSK1/STK23 (Q9UPE1 whole entry): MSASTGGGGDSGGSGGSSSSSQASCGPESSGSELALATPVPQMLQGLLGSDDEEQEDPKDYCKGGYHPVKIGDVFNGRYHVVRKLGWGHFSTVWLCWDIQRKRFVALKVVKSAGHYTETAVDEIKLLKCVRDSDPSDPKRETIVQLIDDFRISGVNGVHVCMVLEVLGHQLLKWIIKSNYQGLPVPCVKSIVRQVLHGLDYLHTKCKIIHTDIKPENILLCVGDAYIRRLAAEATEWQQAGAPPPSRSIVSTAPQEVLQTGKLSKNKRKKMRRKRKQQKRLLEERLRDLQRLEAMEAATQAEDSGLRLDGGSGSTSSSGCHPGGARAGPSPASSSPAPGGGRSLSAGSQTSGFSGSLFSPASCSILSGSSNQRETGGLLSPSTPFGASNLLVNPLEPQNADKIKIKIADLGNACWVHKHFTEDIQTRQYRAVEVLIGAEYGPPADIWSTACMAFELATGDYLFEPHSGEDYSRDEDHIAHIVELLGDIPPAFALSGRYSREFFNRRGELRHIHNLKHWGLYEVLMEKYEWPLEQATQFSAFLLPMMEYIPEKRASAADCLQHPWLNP

| SMILES | IC50 |
| --- | --- |
| Cc1cc(Cl)cc2nc(-c3nccc(NCc4cccnc4N(C)S(C)(=O)=O)n3)[nH]c12 [Compound B9] | < 50 nM |
| CN(c1ncccc1CNc1cccc(-c2nc3cc(Cl)ccc3n2C)n1)S(C)(=O)=O [Compound B6] | < 50 nM |

Further lines, results first:

| IC50 | SMILES |
| --- | --- |
| 50 to 500 nM | Cc1cc2cnc(-c3nc4cc(Cl)ccc4n3C)nc2n1Cc1cccnc1N(C)S(C)(=O)=O [Compound B21] |
| < 50 nM | CN(c1ncccc1CNc1ccnc(-c2nc3cc(C(C)(C)C)c(F)cc3[nH]2)n1)S(C)(=O)=O [Compound B18] |
| 500 to 2500 nM | CN(c1ncccc1Cn1c(=O)ccc2cnc(-c3nc4cc(Cl)ccc4[nH]3)cc21)S(C)(=O)=O [Compound B20] |
| 50 to 500 nM | CCN(c1ncccc1Cn1ccc2cnc(-c3nc4cc(Cl)ccc4[nH]3)cc21)S(C)(=O)=O [Compound B16] |
| 50 to 500 nM | Cc1cc2cnc(-c3nc4cc(Cl)c(Cl)cc4n3C)nc2n1Cc1cccnc1N(C)S(C)(=O)=O [Compound B22] |

Molecular target: SRPK1 (Homo sapiens, UniProt Q96SB4)
Sequence (Q96SB4 whole entry, species assumed): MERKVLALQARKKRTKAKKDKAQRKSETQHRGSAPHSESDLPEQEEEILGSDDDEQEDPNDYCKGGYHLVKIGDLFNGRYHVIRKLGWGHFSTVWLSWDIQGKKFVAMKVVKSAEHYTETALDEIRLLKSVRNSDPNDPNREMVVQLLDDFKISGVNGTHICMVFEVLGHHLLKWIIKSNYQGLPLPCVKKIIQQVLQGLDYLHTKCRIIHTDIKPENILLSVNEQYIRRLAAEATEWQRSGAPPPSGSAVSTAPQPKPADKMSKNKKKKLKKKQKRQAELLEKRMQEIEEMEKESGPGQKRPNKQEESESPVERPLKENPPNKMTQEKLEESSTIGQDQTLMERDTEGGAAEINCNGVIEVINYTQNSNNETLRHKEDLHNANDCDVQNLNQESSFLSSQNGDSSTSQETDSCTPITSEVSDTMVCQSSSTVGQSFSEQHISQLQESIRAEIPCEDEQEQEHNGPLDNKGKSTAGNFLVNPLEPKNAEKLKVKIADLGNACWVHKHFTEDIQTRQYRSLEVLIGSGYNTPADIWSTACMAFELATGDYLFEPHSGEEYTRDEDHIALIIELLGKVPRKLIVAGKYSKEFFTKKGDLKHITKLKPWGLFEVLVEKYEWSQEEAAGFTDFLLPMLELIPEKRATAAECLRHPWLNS
Experiment: biochemical

| SMILES | IC50 |
| --- | --- |
| CN(c1ncncc1CNc1ccnc(-c2nc3cc(Cl)ccc3[nH]2)n1)S(C)(=O)=O [Compound B4] | 50 to 500 nM |
| CCN(c1ncccc1CNc1ccnc(-c2nc3cc(Cl)ccc3[nH]2)n1)S(C)(=O)=O [Compound B8] | < 50 nM |
| CCn1c(-c2nccc(NCc3cccnc3N(C)S(C)(=O)=O)n2)nc2cc(Cl)ccc21 [Compound B15] | < 50 nM |
| Cc1cc(Cl)cc2nc(-c3nccc(NCc4cccnc4N(C)S(C)(=O)=O)n3)[nH]c12 [Compound B9] | < 50 nM |
| CN(c1ccccc1CNc1cccc(-c2nc3cc(Cl)ccc3[nH]2)n1)S(C)(=O)=O [Compound B3] | < 50 nM |
| CN(c1ncccc1CNc1cccc(-c2nc3cc(Cl)ccc3n2C)n1)S(C)(=O)=O [Compound B6] | 50 to 500 nM |

The next lines start with the values.

| IC50 | SMILES |
| --- | --- |
| < 50 nM | Cc1cc2cnc(-c3nc4cc(Cl)ccc4n3C)nc2n1Cc1cccnc1N(C)S(C)(=O)=O [Compound B21] |
| 50 to 500 nM | CN(c1ncccc1CNc1ccnc(-c2nc3cc(C(C)(C)C)c(F)cc3[nH]2)n1)S(C)(=O)=O [Compound B18] |
| 50 to 500 nM | CN(c1ncccc1Cn1c(=O)ccc2cnc(-c3nc4cc(Cl)ccc4[nH]3)cc21)S(C)(=O)=O [Compound B20] |
| 50 to 500 nM | CCN(c1ncccc1Cn1ccc2cnc(-c3nc4cc(Cl)ccc4[nH]3)cc21)S(C)(=O)=O [Compound B16] |
| < 50 nM | Cc1cc2cnc(-c3nc4cc(Cl)c(Cl)cc4n3C)nc2n1Cc1cccnc1N(C)S(C)(=O)=O [Compound B22] |

Molecular target: SRPK2 (Homo sapiens, UniProt P78362)
Sequence (P78362 whole entry, species assumed): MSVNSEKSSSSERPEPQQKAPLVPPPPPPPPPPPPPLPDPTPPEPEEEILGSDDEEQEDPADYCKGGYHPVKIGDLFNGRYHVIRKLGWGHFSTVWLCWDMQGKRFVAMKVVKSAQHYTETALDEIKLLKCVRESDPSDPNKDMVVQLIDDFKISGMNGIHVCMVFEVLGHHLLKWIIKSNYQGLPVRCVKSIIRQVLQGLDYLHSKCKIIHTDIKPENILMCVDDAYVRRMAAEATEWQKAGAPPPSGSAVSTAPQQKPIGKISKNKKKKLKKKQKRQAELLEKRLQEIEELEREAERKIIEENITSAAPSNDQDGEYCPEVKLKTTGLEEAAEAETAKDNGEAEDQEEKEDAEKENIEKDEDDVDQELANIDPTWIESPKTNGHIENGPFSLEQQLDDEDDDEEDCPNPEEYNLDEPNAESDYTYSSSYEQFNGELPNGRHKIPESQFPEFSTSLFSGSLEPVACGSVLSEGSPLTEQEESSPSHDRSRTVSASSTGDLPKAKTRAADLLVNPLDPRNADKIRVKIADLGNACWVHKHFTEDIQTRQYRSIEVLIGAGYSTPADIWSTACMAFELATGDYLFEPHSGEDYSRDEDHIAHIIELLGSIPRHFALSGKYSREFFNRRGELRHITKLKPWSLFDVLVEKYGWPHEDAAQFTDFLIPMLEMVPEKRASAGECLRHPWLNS
Experiment: biochemical

| SMILES | IC50 |
| --- | --- |
| CN(c1ncncc1CNc1ccnc(-c2nc3cc(Cl)ccc3[nH]2)n1)S(C)(=O)=O [Compound B4] | 500 to 2500 nM |
| CCN(c1ncccc1CNc1ccnc(-c2nc3cc(Cl)ccc3[nH]2)n1)S(C)(=O)=O [Compound B8] | 50 to 500 nM |
| CCn1c(-c2nccc(NCc3cccnc3N(C)S(C)(=O)=O)n2)nc2cc(Cl)ccc21 [Compound B15] | 500 to 2500 nM |
| Cc1cc(Cl)cc2nc(-c3nccc(NCc4cccnc4N(C)S(C)(=O)=O)n3)[nH]c12 [Compound B9] | 50 to 500 nM |
| CN(c1ccccc1CNc1cccc(-c2nc3cc(Cl)ccc3[nH]2)n1)S(C)(=O)=O [Compound B3] | 50 to 500 nM |
| CN(c1ncccc1CNc1cccc(-c2nc3cc(Cl)ccc3n2C)n1)S(C)(=O)=O [Compound B6] | 50 to 500 nM |

Continued, values first:

| IC50 | SMILES |
| --- | --- |
| 50 to 500 nM | Cc1cc2cnc(-c3nc4cc(Cl)ccc4n3C)nc2n1Cc1cccnc1N(C)S(C)(=O)=O [Compound B21] |
| 500 to 2500 nM | CN(c1ncccc1CNc1ccnc(-c2nc3cc(C(C)(C)C)c(F)cc3[nH]2)n1)S(C)(=O)=O [Compound B18] |
| 50 to 500 nM | CN(c1ncccc1Cn1c(=O)ccc2cnc(-c3nc4cc(Cl)ccc4[nH]3)cc21)S(C)(=O)=O [Compound B20] |
| 50 to 500 nM | CN(c1ncccc1CNc1ccnc(-c2nc3cc(Cl)c(Cl)cc3n2C)n1)S(C)(=O)=O [Compound B19] |
| 50 to 500 nM | CCN(c1ncccc1Cn1ccc2cnc(-c3nc4cc(Cl)ccc4[nH]3)cc21)S(C)(=O)=O [Compound B16] |
| 50 to 500 nM | Cc1cc2cnc(-c3nc4cc(Cl)c(Cl)cc4n3C)nc2n1Cc1cccnc1N(C)S(C)(=O)=O [Compound B22] |
